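Protocol summary: plate cells (96-well), add compound at 5 concentrations, incubate 48 h, interpolate endpoints linearly. TGI: concentration producing complete growth inhibition.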
What was measured:
Assay in all cases: DTP human tumour cell line panel, 48 h
786-0 renal = test system: 786-0 renal
A498 renal = test system: A498 renal
A549 NSCLC = test system: A549 NSCLC
ACHN renal = test system: ACHN renal
CAKI-1 renal = test system: CAKI-1 renal
CCRF-CEM leukemia = test system: CCRF-CEM leukemia
COLO 205 colon = test system: COLO 205 colon
DLD-1 colon = test system: DLD-1 colon
DMS 273 small cell lung = test system: DMS 273 small cell lung
EKVX NSCLC = test system: EKVX NSCLC
HCT-15 colon = test system: HCT-15 colon
HL-60(TB) leukemia = test system: HL-60(TB) leukemia
HOP-18 NSCLC = test system: HOP-18 NSCLC
HOP-92 NSCLC = test system: HOP-92 NSCLC
HT29 colon = test system: HT29 colon
IGROV1 ovarian = test system: IGROV1 ovarian
K-562 leukemia = test system: K-562 leukemia
KM20L2 colon = test system: KM20L2 colon
LOX IMVI melanoma = test system: LOX IMVI melanoma
LXFL 529 NSCLC = test system: LXFL 529 NSCLC
M14 melanoma = test system: M14 melanoma
M19-MEL melanoma = test system: M19-MEL melanoma
MALME-3M melanoma = test system: MALME-3M melanoma
MOLT-4 leukemia = test system: MOLT-4 leukemia
NCI-H23 lung = test system: NCI-H23 lung
NCI-H460 lung = test system: NCI-H460 lung
NCI-H522 lung = test system: NCI-H522 lung
OVCAR-4 ovarian = test system: OVCAR-4 ovarian
OVCAR-5 ovarian = test system: OVCAR-5 ovarian
OVCAR-8 ovarian = test system: OVCAR-8 ovarian
RPMI-8226 leukemia = test system: RPMI-8226 leukemia
RXF 393 renal = test system: RXF 393 renal
SF-268 CNS = test system: SF-268 CNS
SF-539 CNS = test system: SF-539 CNS
SK-MEL-2 melanoma = test system: SK-MEL-2 melanoma
SK-MEL-28 melanoma = test system: SK-MEL-28 melanoma
SK-MEL-5 melanoma = test system: SK-MEL-5 melanoma
SK-OV-3 ovarian = test system: SK-OV-3 ovarian
SN12C renal = test system: SN12C renal
SNB-19 CNS = test system: SNB-19 CNS
SNB-75 CNS = test system: SNB-75 CNS
SW-620 colon = test system: SW-620 colon
TK-10 renal = test system: TK-10 renal
U251 CNS = test system: U251 CNS
UACC-257 melanoma = test system: UACC-257 melanoma
UACC-62 melanoma = test system: UACC-62 melanoma
UO-31 renal = test system: UO-31 renal
XF 498 CNS = test system: XF 498 CNS
DMS 114 small cell lung = test system: DMS 114 small cell lung
HCC-2998 colon = test system: HCC-2998 colon
HCT-116 colon = test system: HCT-116 colon
HOP-62 NSCLC = test system: HOP-62 NSCLC
KM12 colon = test system: KM12 colon
NCI-H226 lung = test system: NCI-H226 lung
OVCAR-3 ovarian = test system: OVCAR-3 ovarian
SF-295 CNS = test system: SF-295 CNS
SNB-78 CNS = test system: SNB-78 CNS
SR leukemia = test system: SR leukemia

O=C(O)CNS(=O)(=O)c1ccc(NC(=O)c2ccccc2[N+](=O)[O-])cc1 was tested, and the TGI (786-0 renal) was over 100 µM, the TGI (A498 renal) was over 100 µM and the TGI (A549 NSCLC) was over 100 µM. For the same compound, the TGI (ACHN renal) was over 100 µM, the TGI (CAKI-1 renal) was over 100 µM and the TGI (CCRF-CEM leukemia) was over 100 µM. For the same compound, the TGI (COLO 205 colon) was over 100 µM, the TGI (DLD-1 colon) was over 100 µM and the TGI (DMS 273 small cell lung) was over 100 µM. The TGI (EKVX NSCLC) was over 100 µM, the TGI (HCT-15 colon) was over 100 µM and the TGI (HL-60(TB) leukemia) was over 100 µM. The TGI (HOP-18 NSCLC) was over 100 µM, the TGI (HOP-92 NSCLC) was over 100 µM and the TGI (HT29 colon) was over 100 µM. For the same compound, the TGI (IGROV1 ovarian) was over 100 µM, the TGI (K-562 leukemia) was over 100 µM and the TGI (KM20L2 colon) was over 100 µM. It also gave a TGI (LOX IMVI melanoma) of over 100 µM, a TGI (LXFL 529 NSCLC) of over 100 µM and a TGI (M14 melanoma) of over 100 µM. For the same compound, the TGI (M19-MEL melanoma) was over 100 µM, the TGI (MALME-3M melanoma) was over 100 µM and the TGI (MOLT-4 leukemia) was over 100 µM. For the same compound, the TGI (NCI-H23 lung) was over 100 µM, the TGI (NCI-H460 lung) was over 100 µM and the TGI (NCI-H522 lung) was over 100 µM. It also gave a TGI (OVCAR-4 ovarian) of over 100 µM, a TGI (OVCAR-5 ovarian) of over 100 µM and a TGI (OVCAR-8 ovarian) of over 100 µM. The TGI (RPMI-8226 leukemia) was over 100 µM, the TGI (RXF 393 renal) was over 100 µM and the TGI (SF-268 CNS) was over 100 µM. The TGI (SF-539 CNS) was over 100 µM, the TGI (SK-MEL-2 melanoma) was over 100 µM and the TGI (SK-MEL-28 melanoma) was over 100 µM. For the same compound, the TGI (SK-MEL-5 melanoma) was over 100 µM, the TGI (SK-OV-3 ovarian) was over 100 µM and the TGI (SN12C renal) was over 100 µM. It also gave a TGI (SNB-19 CNS) of over 100 µM, a TGI (SNB-75 CNS) of over 100 µM and a TGI (SW-620 colon) of over 100 µM. For the same compound, the TGI (TK-10 renal) was over 100 µM, the TGI (U251 CNS) was over 100 µM and the TGI (UACC-257 melanoma) was over 100 µM. The TGI (UACC-62 melanoma) was over 100 µM, the TGI (UO-31 renal) was over 100 µM and the TGI (XF 498 CNS) was over 100 µM.
For C/C(=N\OCC(O)CNC(C)C)c1ccc2c(c1)NC(=O)CS2 (stereo not drawn), the TGI (786-0 renal) was over 100 µM, the TGI (A498 renal) was over 100 µM and the TGI (A549 NSCLC) was over 100 µM. It also gave a TGI (ACHN renal) of over 100 µM, a TGI (CCRF-CEM leukemia) of over 100 µM and a TGI (COLO 205 colon) of over 100 µM. It also gave a TGI (DLD-1 colon) of over 100 µM, a TGI (DMS 114 small cell lung) of over 100 µM and a TGI (EKVX NSCLC) of over 100 µM. The TGI (HCC-2998 colon) was over 100 µM, the TGI (HCT-116 colon) was over 100 µM and the TGI (HCT-15 colon) was over 100 µM. It also gave a TGI (HOP-18 NSCLC) of over 100 µM, a TGI (HOP-62 NSCLC) of over 100 µM and a TGI (HOP-92 NSCLC) of over 100 µM. The TGI (HT29 colon) was over 100 µM, the TGI (K-562 leukemia) was over 100 µM and the TGI (KM12 colon) was over 100 µM. For the same compound, the TGI (KM20L2 colon) was over 100 µM, the TGI (LOX IMVI melanoma) was over 100 µM and the TGI (LXFL 529 NSCLC) was over 100 µM. The TGI (M14 melanoma) was over 100 µM, the TGI (M19-MEL melanoma) was over 100 µM and the TGI (MALME-3M melanoma) was over 100 µM. It also gave a TGI (MOLT-4 leukemia) of over 100 µM, a TGI (NCI-H226 lung) of over 100 µM and a TGI (NCI-H23 lung) of over 100 µM. The TGI (NCI-H460 lung) was over 100 µM, the TGI (NCI-H522 lung) was over 100 µM and the TGI (OVCAR-3 ovarian) was over 100 µM. It also gave a TGI (OVCAR-4 ovarian) of over 100 µM, a TGI (OVCAR-5 ovarian) of over 100 µM and a TGI (OVCAR-8 ovarian) of over 100 µM. For the same compound, the TGI (RXF 393 renal) was over 100 µM, the TGI (SF-268 CNS) was over 100 µM and the TGI (SF-295 CNS) was over 100 µM. For the same compound, the TGI (SF-539 CNS) was over 100 µM, the TGI (SK-MEL-2 melanoma) was over 100 µM and the TGI (SK-MEL-28 melanoma) was over 100 µM. For the same compound, the TGI (SK-MEL-5 melanoma) was over 100 µM, the TGI (SK-OV-3 ovarian) was over 100 µM and the TGI (SN12C renal) was over 100 µM. The TGI (SNB-19 CNS) was over 100 µM, the TGI (SNB-75 CNS) was over 100 µM and the TGI (SNB-78 CNS) was over 100 µM. It also gave a TGI (SW-620 colon) of over 100 µM, a TGI (TK-10 renal) of over 100 µM and a TGI (U251 CNS) of over 100 µM. It also gave a TGI (UACC-257 melanoma) of over 100 µM, a TGI (UACC-62 melanoma) of over 100 µM and a TGI (UO-31 renal) of over 100 µM. For the same compound, the TGI (XF 498 CNS) was over 100 µM.
Work on C[C@@H](CC(O)C1OC1(C)C)[C@@H]1CC[C@]2(C)C3=CCC4C(C)(C)C(O)CC[C@]4(C)C3CCC12C (stereo partly drawn) yielded a TGI (786-0 renal) of 33.9 µM, a TGI (A498 renal) of 77.3 µM and a TGI (A549 NSCLC) of 32.9 µM. The TGI (ACHN renal) was 88.8 µM, the TGI (CCRF-CEM leukemia) was over 100 µM and the TGI (COLO 205 colon) was 60.7 µM. The TGI (DLD-1 colon) was over 100 µM, the TGI (DMS 273 small cell lung) was 29.2 µM and the TGI (EKVX NSCLC) was over 100 µM. It also gave a TGI (HCC-2998 colon) of over 100 µM, a TGI (HCT-116 colon) of 31.3 µM and a TGI (HCT-15 colon) of over 100 µM. It also gave a TGI (HL-60(TB) leukemia) of 24.9 µM, a TGI (HOP-18 NSCLC) of 80.7 µM and a TGI (HOP-62 NSCLC) of over 100 µM. The TGI (HOP-92 NSCLC) was 41.9 µM, the TGI (HT29 colon) was 24.8 µM and the TGI (IGROV1 ovarian) was over 100 µM. For the same compound, the TGI (K-562 leukemia) was 73.1 µM, the TGI (KM12 colon) was over 100 µM and the TGI (KM20L2 colon) was 48.6 µM. The TGI (LOX IMVI melanoma) was over 100 µM, the TGI (LXFL 529 NSCLC) was 25.6 µM and the TGI (M14 melanoma) was 42.1 µM. It also gave a TGI (M19-MEL melanoma) of 49.9 µM, a TGI (MALME-3M melanoma) of 31.1 µM and a TGI (MOLT-4 leukemia) of over 100 µM. For the same compound, the TGI (NCI-H226 lung) was 45.3 µM, the TGI (NCI-H23 lung) was 75.4 µM and the TGI (NCI-H460 lung) was over 100 µM. For the same compound, the TGI (NCI-H522 lung) was 32.6 µM, the TGI (OVCAR-3 ovarian) was over 100 µM and the TGI (OVCAR-4 ovarian) was over 100 µM. It also gave a TGI (OVCAR-5 ovarian) of over 100 µM, a TGI (OVCAR-8 ovarian) of over 100 µM and a TGI (RPMI-8226 leukemia) of over 100 µM. It also gave a TGI (RXF 393 renal) of 42.1 µM, a TGI (SF-268 CNS) of 85.4 µM and a TGI (SF-295 CNS) of 40.8 µM. For the same compound, the TGI (SF-539 CNS) was 54.4 µM, the TGI (SK-MEL-2 melanoma) was 57.4 µM and the TGI (SK-MEL-28 melanoma) was 41.9 µM. The TGI (SK-OV-3 ovarian) was 58.9 µM, the TGI (SN12C renal) was over 100 µM and the TGI (SNB-19 CNS) was over 100 µM. It also gave a TGI (SR leukemia) of over 100 µM, a TGI (SW-620 colon) of over 100 µM and a TGI (TK-10 renal) of 61.6 µM. It also gave a TGI (U251 CNS) of over 100 µM, a TGI (UACC-257 melanoma) of 41.2 µM and a TGI (UACC-62 melanoma) of 33.6 µM. The TGI (UO-31 renal) was 63.5 µM and the TGI (XF 498 CNS) was 46.4 µM.
